Values after ≈ are worked out from the molar mass of the structure shown. Like-named read-outs stand apart in the source and are kept apart here.
Columns and labels:
Experiment in all cases: In vitro activity (MIC) against Gram-negative aerobic bacteria
Assay type in all cases: cell-based
[1] = test system: Acinetobacter baumannii MMX 2599
[2] = test system: Klebsiella pneumoniae MMX 6854; ESBL
[3] = test system: Acinetobacter baumannii MMX 2587; MDR
[4] = test system: Klebsiella pneumoniae MMX 4885; KPC
[5] = test system: Acinetobacter baumannii ATCC 19606
[6] = test system: Enterobacter cloacae MMX 6089
[7] = test system: Klebsiella pneumoniae MMX 4683 (CDC ART2008030); ESBL, KPC-2
[8] = test system: Serratia marcescens MMX 6462
[9] = test system: Proteus mirabilis MMX 6442
[10] = test system: Citrobacter freundii MMX 6284

Row | Compound | MIC ([1]; MMX2599, read-out: MIC) [µg/mL] | MIC ([2]; read-out: MIC) [µg/mL] | MIC ([3]; read-out: MIC) [µg/mL] | MIC ([4]; read-out: MIC) [µg/mL] | MIC ([5]; ATCC19606, read-out: MIC) [µg/mL] | MIC ([6]; MMX6089, read-out: MIC) [µg/mL] | MIC ([7]; read-out: MIC) [µg/mL] | MIC ([8]; MMX6462, read-out: MIC) [µg/mL] | MIC ([9]; MMX6442, read-out: MIC) [µg/mL] | MIC ([10]; MMX6284, read-out: MIC) [µg/mL] | MIC [1] [µg/mL] | MIC [2] [µg/mL] | MIC [3] [µg/mL] | MIC [4] [µg/mL] | MIC [5] [µg/mL] | MIC [6] [µg/mL] | MIC [7] [µg/mL] | MIC [8] [µg/mL] | MIC [9] [µg/mL] | MIC [10] [µg/mL]
1 | colistin |  |  |  |  |  |  |  |  |  |  | 2 | 0.25 | 1 | 8 | 0.5 | 0.12 | 0.12 | >32 | >32 | 0.12
2 | Cc1ncc([N+](=O)[O-])n1CCO [MET, metronidazole] | > 32 | > 32 | > 32 | > 32 | > 32 | > 32 | > 32 | > 32 | > 32 | > 32 |  |  |  |  |  |  |  |  |  | 
3 | CN[C@H](CC(C)C)C(=O)N[C@H]1C(=O)N[C@@H](CC(N)=O)C(=O)N[C@H]2C(=O)N[C@H]3C(=O)N[C@H](C(=O)N[C@H](C(=O)O)c4cc(O)cc(O)c4-c4cc3ccc4O)[C@H](O)c3ccc(c(Cl)c3)Oc3cc2cc(c3O[C@@H]2O[C@H](CO)[C@@H](O)[C@H](O)[C@H]2O[C@H]2C[C@](C)(N)[C@H](O)[C@H](C)O2)Oc2ccc(cc2Cl)[C@H]1O [VAN, vancomycin] | > 32 | > 32 | > 32 | > 32 | > 32 | > 32 | > 32 | > 32 | > 32 | > 32 |  |  |  |  |  |  |  |  |  | 
4 | C[C@H](O)[C@H]1C(=O)N2C(C(=O)O)=C(S[C@@H]3CN[C@H](C(=O)N(C)C)C3)[C@H](C)[C@H]12 [JDB-1-200, (4R,5S,6S)-3-(((3S,5S)-5-(dimethylcarbamoyl)pyrrolidin-1-ium-3-yl)thio)-6-((S)-1-hydroxyethyl)-4-methyl-7-oxo-1-azabicyclo[3.2.0]hept-2-ene-2-carboxylate] | 0.12 (≈ 0.313 µM) | 0.5 (≈ 1.3 µM) | 32 (≈ 83.4 µM) | 0.5 (≈ 1.3 µM) | 0.5 (≈ 1.3 µM) | 0.12 (≈ 0.313 µM) | 1 (≈ 2.61 µM) | 0.5 (≈ 1.3 µM) | 1 (≈ 2.61 µM) | 1 (≈ 2.61 µM) |  |  |  |  |  |  |  |  |  | 

Now from value to compound, other results behind:

Row | MIC ([1]; MMX2599, read-out: MIC) [µg/mL] | MIC ([2]; read-out: MIC) [µg/mL] | MIC ([3]; read-out: MIC) [µg/mL] | MIC ([4]; read-out: MIC) [µg/mL] | MIC ([5]; ATCC19606, read-out: MIC) [µg/mL] | MIC ([6]; MMX6089, read-out: MIC) [µg/mL] | MIC ([7]; read-out: MIC) [µg/mL] | MIC ([8]; MMX6462, read-out: MIC) [µg/mL] | MIC ([9]; MMX6442, read-out: MIC) [µg/mL] | MIC ([10]; MMX6284, read-out: MIC) [µg/mL] | Compound | MIC [1] [µg/mL] | MIC [2] [µg/mL] | MIC [3] [µg/mL] | MIC [4] [µg/mL] | MIC [5] [µg/mL] | MIC [6] [µg/mL] | MIC [7] [µg/mL] | MIC [8] [µg/mL] | MIC [9] [µg/mL] | MIC [10] [µg/mL]
5 | 0.25 (≈ 0.652 µM) | 0.25 (≈ 0.652 µM) | > 8 | > 8 | 2 (≈ 5.22 µM) | 0.06 (≈ 0.156 µM) | > 8 | 0.25 (≈ 0.652 µM) | 0.12 (≈ 0.313 µM) | > 8 | C[C@@H](O)[C@H]1C(=O)N2C(C(=O)O)=C(S[C@@H]3CN[C@H](C(=O)N(C)C)C3)[C@H](C)[C@H]12 [MEM, meropenem] |  |  |  |  |  |  |  |  |  | 
6 | 8 (≈ 14.6 µM) | 0.5 (≈ 0.915 µM) | > 32 | > 32 | 8 (≈ 14.6 µM) | 32 (≈ 58.5 µM) | > 32 | 0.25 (≈ 0.457 µM) | ≤ 0.03 | > 32 | CC(C)(O/N=C(\C(=O)N[C@@H]1C(=O)N2C(C(=O)[O-])=C(C[n+]3ccccc3)CS[C@H]12)c1csc(N)n1)C(=O)O [CAZ, ceftazidime] |  |  |  |  |  |  |  |  |  | 
7 | 0.12 (≈ 0.299 µM) | 0.5 (≈ 1.25 µM) | > 4 | > 4 | 0.25 (≈ 0.623 µM) | 0.03 (≈ 0.0747 µM) | > 4 | 0.12 (≈ 0.299 µM) | 0.25 (≈ 0.623 µM) | > 4 | COc1c(N2C[C@@H]3CCCN[C@@H]3C2)c(F)cc2c(=O)c(C(=O)O)cn(C3CC3)c12 [MOX, moxifloxacin] |  |  |  |  |  |  |  |  |  | 

From US20240383899A1, “MODIFIED CARBAPENEM ANTIBIOTICS WITH IMPROVED ACTIVITY AGAINST KPC CARBAPENEMASE-PRODUCING ENTEROBACTERALES” (priority 2023, published 2024)
